Experimental data as given in patent publication US6004955A, “Cyclic carbamates and isoxazolidines as IIb/IIIa antagonists” (DuPont Pharmaceuticals Company, priority 1998, dated 1999).

Tested on: platelet aggregation (using platelet rich plasma (PRP))
Experiment: Platelet Aggregation Assay (without esterase)
Format: cell-based
Settings: human platelet rich plasma
Procedure: Platelet Aggregation Assay: Venous blood was obtained from the arm of a healthy human donor who was drug-free and aspirin-free for at least two weeks prior to blood collection. Blood was collected into 10 mL citrated Vacutainer tubes. The blood was centrifuged for 15 minutes at 150×g at room temperature, and platelet-rich plasma (PRP) was removed. The remaining blood was centrifuged for 15 minutes at 1500×g at room temperature, and platelet-poor plasma (PPP) was removed. Samples were assayed on a aggregometer (PAP-4 Platelet Aggregation Profiler), using PPP as the blank (100% transmittance). 200 μL of PRP was added to each micro test tube, and transmittance was set to 0%. 20 μL of various agonists (ADP, collagen, arachidonate, epinephrine, thrombin) were added to each tube, and the aggregation profiles were plotted (% transmittance versus time). The results are expressed as % inhibition of agonist-inducedplatelet aggregation. For the IC50 evaluation, the test compounds were added at various concentrations prior to the activation of the platelets.
Table A below sets forth the antiplatelet activity of representative compounds of the present invention. The indicated compounds were tested for their ability to inhibit platelet aggregation (using platelet rich plasma (PRP)). The IC50 value (the concentration of antagonist which inhibits platelet aggregation by 50% relative to a control lacking the antagonist) is shown. In Table 5 the IC50 values are expressed as: +++=IC50 of <10 μM (μM=micromolar).

Row | Structure (SMILES) | IC50 [µM]
1 | Cc1cccc(S(=O)(=O)N[C@@H](CNC(=O)CC2CC(c3ccc(C(=N)N)cc3)N(Cc3ccccc3)C(=O)O2)C(=O)O)c1 (stereo partly drawn) [Example 322, Cis-3-[[[4-[4-(aminoiminomethyl)phenyl]tetrahydro-3-benzyl-2-oxo-2H-1,3-oxazin-6-yl]acetyl]amino]-N-[(3-methylphenyl)sulfonyl]-L-alanine monohydrogenchloride] | < 10
2 | CCCCOC(=O)N[C@@H](CNC(=O)CC1CC(c2ccc(C(=N)N)cc2)N(C)O1)C(=O)O (stereo partly drawn) [Example 69, Cis-3-[2-[2-methyl-3-[4-(aminoiminomethyl)phenyl]-isoxazolidin-5-yl]acetyl]amino-N-n-butyloxycarbonyl-L-alanine monohydrogenchloride] | < 10
3 | Cc1cccc(S(=O)(=O)N[C@@H](CNC(=O)CC2CC(c3ccc(C(=N)N)cc3)N(C)O2)C(=O)O)c1 (stereo partly drawn) [Example 2, Cis-3-[2-[2-methyl-3-[4-(aminoiminomethyl)phenyl]-isoxazolidin-5-yl]acetyl]amino-N-(3-methylphenylsulfonyl)-L-alanine monohydrogenchloride] | < 10
4 | Cc1noc(C)c1S(=O)(=O)N[C@@H](CNC(=O)C[C@@H]1C[C@H](c2ccc(C(=N)N)cc2)N(C)O1)C(=O)O (relative stereo) [Example 38, Cis-3-[2-[2-methyl-3-[4-(aminoiminomethyl)phenyl]-isoxazolidin-5-yl]acetyl]amino-N-(3,5-dimethyloxazol-4-ylsulfonyl)-L-alanine monohydrogenchloride] | < 10
5 | Cc1ccccc1S(=O)(=O)N[C@@H](CNC(=O)CC1CC(c2ccc(C(=N)N)cc2)N(C)C(=O)O1)C(=O)O (stereo partly drawn) [Example 328, Cis-3-[[[4-[4-(aminoiminomethyl)phenyl]tetrahydro-3-methyl-2-oxo-2H-1,3-oxazin-6-yl]acetyl]amino]-N-[(2-methylphenyl)sulfonyl]-L-alanine monohydrogenchloride] | < 10
6 | Cc1cccc(S(=O)(=O)N[C@@H](CNC(=O)CC2CC(c3ccc(C(=N)N)cc3)N(C(C)C)O2)C(=O)O)c1 (stereo partly drawn) [Example 29, Cis-3-[2-[2-isopropyl-3-[4-(aminoiminomethyl)phenyl]-isoxazolidin-5-yl]acetyl]amino-N-(3-methylphenylsulfonyl)-L-alanine monohydrogenchloride] | < 10
7 | Cc1cccc(S(=O)(=O)N[C@@H](CNC(=O)CC2CC(c3ccc(C(=N)N)cc3)N(Cc3ccccc3)O2)C(=O)O)c1 (stereo partly drawn) [Example 17, Cis-3-[2-[2-benzyl-3-[4-(aminoiminomethyl)phenyl]-isoxazolidin-5-yl]acetyl]amino-N-(3-methylphenylsulfonyl)-L-alanine monohydrogenchloride] | < 10
